Measured values from patent US9969742B2, “Imidazotriazinone compounds” (Ironwood Pharmaceuticals, Inc., priority 2012, dated 2018).

How the values were obtained:
Type in all cases: biochemical
PDE1A = molecular target: T1, PDE1A (Homo sapiens, UniProt P54750); assay: Phosphodiesterase enzyme screening assay, PDE1A; conditions: Table 1; ratio of IC50 values; value greater than 1 indicates greater selectivity for PDE9A2
T1 construct: purchased Reaction Biology Corporation, Malvern, Pa
Excerpt: (§1) Compounds of the invention were screened against PDE1A, PDE1B, PDE2A, PDE3A, PDE3B, PDE4A1A, PDE4B1, PDE4D3, PDE5A1, PDE6C, PDE7A, PDE8A1, PDE9A2, PDE10A2 AND PDE11A isoforms of the phosphodiesterase enzyme to determine activity and overall selectivity through comparative analysis. […] Where 8-methoxy-IBMX and Zaprinast were used as reference inhibitors.
(§2) The phosphodiesterase enzyme isoforms were obtained from a commercial retailer (Reaction Biology Corporation, Malvern, Pa.) for use in the instant screening assay.
(§3) The analysis was completed using the Caliper LabChip 3000 and a 12-sipper LabChip. LabChip assays are separations-based, meaning that the product and substrate are electrophoretically separated, thereby minimizing interferences and yielding the highest data quality available on any screening platform. […] High Z′ values, few false positives, few false negatives and analytical quality reproducibility are the reasons cited for the increasing reliance on the LabChip assays.
(§4) The off-chip incubation mobility-shift phosphodiesterase assay uses a microfluidic chip to measure the conversion of a fluorescent cyclic AMP substrate to a 5′-AMP product, or a cyclic GMP substrate to a 5′-GMP product. The reaction mixture, from a microtiter plate well, is introduced through a capillary sipper onto the chip, where the fluorescent substrate and product are separated by electrophoresis and detected via laser-induced fluorescence. […] The precision of microfluidics allows researchers to detect subtle interactions between drug candidates and therapeutic targets.
(§5) Reactions were carried out in 100 mM HEPES (pH 7.5), 5 mM MgCl2, 1 mM DTT, 0.003% Brij, 4.0 μM cGMP substrate. The reaction was started by addition of cGMP or cAMP and incubated for 1 hour at R.T. The reaction was terminated by the addition of stop buffer containing 100 mM HEPES (pH 7.5), 15 mM EDTA, 0.015% Brij-35, 5% DMSO. Cyclic AMP/GMP substrate and 5′-AMP/5′-GMP product were separated by charge using electrophoretic mobility shift. Product formed was compared to control wells to determine inhibition or enhancement of enzyme activity.
(§6) Data points were averages of quadruplicate wells and error bars represented the SEM for each point.

PDE1B = molecular target: T2, PDE1B (Homo sapiens, UniProt Q01064); assay: Phosphodiesterase enzyme screening assay, PDE1B; conditions: Table 1; ratio of IC50 values; value greater than 1 indicates greater selectivity for PDE9A2
T2 construct: purchased Reaction Biology Corporation, Malvern, Pa
T2 sequence (Q01064 whole entry): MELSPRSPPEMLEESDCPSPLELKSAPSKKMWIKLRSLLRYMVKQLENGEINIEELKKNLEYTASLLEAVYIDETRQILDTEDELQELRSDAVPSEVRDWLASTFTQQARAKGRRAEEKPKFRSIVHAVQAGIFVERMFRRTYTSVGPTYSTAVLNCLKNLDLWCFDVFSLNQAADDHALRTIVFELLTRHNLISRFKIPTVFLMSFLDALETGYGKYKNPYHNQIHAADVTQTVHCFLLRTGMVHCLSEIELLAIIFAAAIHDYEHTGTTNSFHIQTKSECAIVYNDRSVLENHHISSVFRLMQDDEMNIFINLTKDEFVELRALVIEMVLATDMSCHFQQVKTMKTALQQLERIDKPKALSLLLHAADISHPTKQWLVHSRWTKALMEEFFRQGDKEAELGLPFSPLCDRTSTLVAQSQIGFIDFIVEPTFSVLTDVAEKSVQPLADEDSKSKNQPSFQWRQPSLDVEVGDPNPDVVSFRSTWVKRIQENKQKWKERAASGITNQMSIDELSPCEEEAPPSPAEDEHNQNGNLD
Excerpt: as §1, §2, §3, §4, §5, §6

PDE9A2 = molecular target: T3, PDE9A2 (Homo sapiens, UniProt O76083); assay: Phosphodiesterase enzyme screening assay, PDE9A2; conditions: Table 1; 10 concentrations; 4.0 μM cGMP substrate; 1 hour at R.T.; read-out: Band (PDE9A2 IC50)
T3 construct: purchased Reaction Biology Corporation, Malvern, Pa
T3 sequence (O76083 1-533 isoform O76083-2): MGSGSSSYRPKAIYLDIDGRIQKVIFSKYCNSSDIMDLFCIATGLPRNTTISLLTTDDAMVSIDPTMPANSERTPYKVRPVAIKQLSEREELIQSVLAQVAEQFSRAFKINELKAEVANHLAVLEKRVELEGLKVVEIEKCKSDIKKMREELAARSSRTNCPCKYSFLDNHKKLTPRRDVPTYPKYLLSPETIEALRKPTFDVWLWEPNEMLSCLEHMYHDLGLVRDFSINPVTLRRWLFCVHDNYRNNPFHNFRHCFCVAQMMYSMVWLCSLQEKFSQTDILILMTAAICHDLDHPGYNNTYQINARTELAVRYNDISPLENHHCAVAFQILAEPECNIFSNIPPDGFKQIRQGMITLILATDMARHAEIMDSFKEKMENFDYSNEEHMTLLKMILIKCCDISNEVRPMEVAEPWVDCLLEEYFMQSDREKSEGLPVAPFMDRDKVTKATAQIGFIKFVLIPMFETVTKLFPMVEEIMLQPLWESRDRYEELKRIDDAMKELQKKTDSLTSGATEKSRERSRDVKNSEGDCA
Procedure, shortened: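 Microfluidic mobility-shift assay; values from quadruplicate wells relative to controls. Conditions: 4.0 μM cGMP, 5 mM MgCl2, pH 7.5 HEPES, 1 h R.T., EDTA stop.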

T1 sequence (P54750 whole entry): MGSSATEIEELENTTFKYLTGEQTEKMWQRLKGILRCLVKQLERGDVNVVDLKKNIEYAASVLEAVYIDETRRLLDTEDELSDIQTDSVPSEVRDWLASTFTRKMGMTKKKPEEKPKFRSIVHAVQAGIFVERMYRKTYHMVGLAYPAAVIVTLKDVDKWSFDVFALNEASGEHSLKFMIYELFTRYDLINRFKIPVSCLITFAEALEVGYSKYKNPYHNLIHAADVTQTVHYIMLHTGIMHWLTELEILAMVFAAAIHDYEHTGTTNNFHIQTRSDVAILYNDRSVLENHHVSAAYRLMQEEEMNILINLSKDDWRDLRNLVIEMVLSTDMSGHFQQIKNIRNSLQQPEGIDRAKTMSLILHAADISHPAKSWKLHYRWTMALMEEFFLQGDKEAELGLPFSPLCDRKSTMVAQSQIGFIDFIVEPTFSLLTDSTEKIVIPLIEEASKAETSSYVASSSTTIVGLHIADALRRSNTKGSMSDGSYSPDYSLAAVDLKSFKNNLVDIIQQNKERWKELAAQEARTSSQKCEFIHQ

| Molecule | PDE1A selectivity (versus PDE9A2) (PDE1A) | PDE1B selectivity (versus PDE9A2) (PDE1B) | IC50 (PDE9A2) [µM] |
| --- | --- | --- | --- |
| CC1CN(Cc2ccccc2)CC1c1nn2c(C3CCCOC3)ncc2c(=O)[nH]1 (single isomer, unassigned) [2-((3,4-trans)-1-benzyl-4-methylpyrrolidin-3-yl)-7-(tetrahydro-2H-pyran-3-yl)imidazo[5,1-f][1,2,4]triazin-4(3H)-one] | 28 | 38 | – |
| Cc1cc(F)ccc1-c1ncc2c(=O)[nH]c(C3CN(Cc4ccccc4)CC3C)nn12 (single isomer, unassigned; (+)) [(+)-2-((3,4-trans)-1-benzyl-4-methylpyrrolidin-3-yl)-7-(4-fluoro-2-methylphenyl)imidazo[5,1-f][1,2,4]triazin-4(3H)-one] | 257 | 225 | – |
| Cc1ccc(Cl)cc1-c1ncc2c(=O)[nH]c(C3CN(Cc4ccccc4)CC3C)nn12 (single isomer, unassigned; (+)) [(+)-2-((3,4-trans)-1-benzyl-4-methylpyrrolidin-3-yl)-7-(5-chloro-2-methylphenyl)imidazo[5,1-f][1,2,4]triazin-4(3H)-one] | 276 | 142 | – |
| Cc1ccc(F)cc1-c1ncc2c(=O)[nH]c(C3CN(Cc4ccccc4)CC3C)nn12 (single isomer, unassigned; (+)) [(+)-2-((3,4-trans)-1-benzyl-4-methylpyrrolidin-3-yl)-7-(5-fl] [(+)-2-((3,4-trans)-1-benzyl-4-methylpyrrolidin-3-yl)-7-(5-fluoro-2-methylphenyl)imidazo[1,5-f][1,2,4]triazin-4(3H)-one] | 247 | 109 | – |
| CC1CN(Cc2ccccc2)CC1c1nn2c(C3CCOCC3)ncc2c(=O)[nH]1 (single isomer, unassigned; (+)) [(+)-2-((3,4-trans)-1-benzyl-4-methylpyrrolidin-3-yl)-7-(tetr] [(+)-2-((3,4-trans)-1-benzyl-4-methylpyrrolidin-3-yl)-7-(tetrahydro-2H-pyran-4-yl)imidazo[1,5-f][1,2,4]triazin-4(3H)-one] | 5 | 5 | – |
| CC1CN(C(C)c2ccccc2)CC1c1nn2c(C3CCOCC3)ncc2c(=O)[nH]1 (single isomer, unassigned; (+)) [(+)-2-((3,4-trans)-4-methyl-1-((S)-1-phenylethyl)pyrrolidin-] | 51 | 99 | – |
| CC1CN(Cc2cnccn2)CC1c1nn2c(C3CCOCC3)ncc2c(=O)[nH]1 (single isomer, unassigned; (+)) [(+)-2-((3,4-trans)-4-methyl-1-(pyrazin-2-ylmethyl)pyrrolidin-3-yl)-7-(tetrahydro-2H-pyran-4-yl)imidazo[5,1-f][1,2,4]triazin-4(3H)-one] | 202 | 178 | – |
| CC1CN(Cc2ncccn2)CC1c1nn2c(C3CCOCC3)ncc2c(=O)[nH]1 (single isomer, unassigned; (+)) [(+)-2-((3,4-trans)-4-methyl-1-(pyrimidin-2-ylmethyl)pyrrolid] [(+)-2-((3,4-trans)-4-methyl-1-(pyrimidin-2-ylmethyl)pyrrolidin-3-yl)-7-(tetrahydro-2H-pyran-4-yl)imidazo[5,1-f][1,2,4]triazin-4(3H)-one] | 393 | 386 | – |
| CC1CN(Cc2ncccn2)CC1c1nn2c(C3CCOC3)ncc2c(=O)[nH]1 (single isomer, unassigned; (+)) [(+)-2-((3,4-trans)-4-methyl-1-(pyrimidin-2-ylmethyl)pyrrolid] [(+)-2-((3,4-trans)-4-methyl-1-(pyrimidin-2-ylmethyl)pyrrolidin-3-yl)-7-(tetrahydrofuran-3-yl)imidazo[5,1-f][1,2,4]triazin-4(3H)-one] | 28 | 58 | – |
| CC1CN(Cc2ncc3ccccc3n2)CC1c1nn2c(C3CCOCC3)ncc2c(=O)[nH]1 (single isomer, unassigned; (+)) [(+)-2-((3,4-trans)-4-methyl-1-(quinazolin-2-ylmethyl)pyrroli] [(+)-2-((3,4-trans)-4-methyl-1-(quinazolin-2-ylmethyl)pyrrolidin-3-yl)-7-(tetrahydro-2H-pyran-4-yl)imidazo[5,1-f][1,2,4]triazin-4(3H)-one] | 973 | 1360 | – |
| CC(=O)N1CCC(c2ncc3c(=O)[nH]c(C4CN(Cc5ccccc5)CC4C)nn23)CC1 (single isomer, unassigned; (+)) [(+)-7-(1-acetylpiperidin-4-yl)-2-((3,4-trans)-1-benzyl-4-methylpyrrolidin-3-yl)imidazo[5,1-f][1,2,4]triazin-4(3H)-one] | 177 | 232 | – |
| CC1CN(Cc2ncccn2)CC1c1nn2c(C3CCC(F)(F)CC3)ncc2c(=O)[nH]1 (single isomer, unassigned; (+)) [(+)-7-(4,4-difluorocyclohexyl)-2-((3,4-trans)-4-methyl-1-(pyrimidin-2-ylmethyl)pyrrolidin-3-yl)imidazo[5,1-f][1,2,4]triazin-4(3H)-one] | 165 | 313 | – |
| Cc1ccc(F)cc1-c1ncc2c(=O)[nH]c(C3CN(Cc4ncccn4)CC3C)nn12 (single isomer, unassigned; (+)) [(+)-7-(5-fluoro-2-methylphenyl)-2-((3,4-trans)-4-methyl-1-(p] [(+)-7-(5-fluoro-2-methylphenyl)-2-((3,4-trans)-4-methyl-1-(pyrimidin-2-ylmethyl)pyrrolidin-3-yl)imidazo[1,5-f][1,2,4]triazin-4(3H)-one] | 158 | 102 | – |
| CC1CN(Cc2cccc(F)c2)CC1c1nn2c(C3CCOCC3)ncc2c(=O)[nH]1 (single isomer, unassigned; (-)) [(−)-2-((3,4-trans)-1-(3-fluorobenzyl)-4-methylpyrrolidin-3-yl)-7-(tetrahydro-2H-pyran-4-yl)imidazo[5,1-f][1,2,4]triazin-4(3H)-one] | 1110 | 1140 | – |
| CC1CN(C(=O)c2ccc(F)cc2)CC1c1nn2c(C3CCOCC3)ncc2c(=O)[nH]1 (single isomer, unassigned; (-)) [(−)-2-((3,4-trans)-1-(4-fluorobenzoyl)-4-methylpyrrolidin-3-] [(−)-2-((3,4-trans)-1-(4-fluorobenzoyl)-4-methylpyrrolidin-3-yl)-7-(tetrahydro-2H-pyran-4-yl)imidazo[5,1-f][1,2,4]triazin-4(3H)-one] | 12 | 23 | – |
| (+)-2-((3,4-trans)-1-benzyl-4-methylpyrrolidin-3-yl)-7-(piperidin-4-yl)imidazo[1,5-f][1,2,4]triazin-4(3H)-one | – | – | 1 to 10 |
| (−)-2-((3,4-trans)-1-benzyl-4-methylpyrrolidin-3-yl)-7-(piperidin-4-yl)imidazo[1,5-f][1,2,4]triazin-4(3H)-one | – | – | > 10 |
